For 65 compounds, glass transition temperature results are on record in the PolyMetriX glass transition set.

The compound `*C(=O)OCCCCCCCCCCCCCCCCCCCCCCOC(=O)c1ccc(N2C(=O)c3ccc(*)cc3C2=O)cc1` (repeat unit) returned a glass transition temperature of 44.00 °C.

`*C(=O)OCCCCCCCCCCCCOC(=O)c1ccc(N2C(=O)c3ccc(*)cc3C2=O)cc1` (repeat unit) yielded a glass transition temperature of 47.00 °C.

In turn, `*C(=O)OCCCCCCCCCCCOC(=O)c1ccc(N2C(=O)c3ccc(*)cc3C2=O)cc1` (repeat unit) came in with a glass transition temperature of 49.00 °C.

`*C(=O)OCCCCCCCCCCOC(=O)c1ccc(N2C(=O)c3ccc(*)cc3C2=O)cc1` (repeat unit) yielded a glass transition temperature of 58.00 °C.

On to `*C(=O)OCCCCOC(=O)c1ccc(N2C(=O)c3ccc(*)cc3C2=O)cc1` (repeat unit), for which the glass transition temperature was 100.50 °C.

In the case of `*CC1CCC(COC(=O)c2ccc(C(=O)O*)cc2)CC1` (repeat unit), the glass transition temperature was found to be 84.50 °C.

Take `*CC1CCC(COC(=O)c2cccc(C(=O)O*)c2)CC1` (repeat unit): the glass transition temperature came to 70.00 °C.

`*CC1CCC(COC(C)OC(=O)c2cccc(C(=O)OC(C)O*)c2)CC1` (repeat unit): the glass transition temperature worked out at 30.00 °C.

`*CCCCC(=O)NNC(=O)c1ccc(C(=O)NNC(=O)CCCCOc2ccc(O*)c(C)c2)cc1` (repeat unit): the glass transition temperature was found to be 150.00 °C.

The compound `*CCCCCCCCCCCCOC(=O)c1ccc2cc(C(=O)O*)ccc2c1` (repeat unit) yielded a glass transition temperature of 45.00 °C.

Compound `*CCCCCCCCCCCCOc1ccc(CCc2ccc(O*)cc2C)cc1` (repeat unit) gave a glass transition temperature of 0.00 °C.

Compound `*CCCCCCCCCCCOc1ccc(CCc2ccc(O*)cc2C)cc1` (repeat unit) had a glass transition temperature of 3.90 °C.

For the compound `*CCCCCCCCCCOC(=O)O*` (repeat unit), the glass transition temperature was -37.00 °C.

The compound `*CCCCCCCCCCOC(=O)c1ccc(-c2ccc(C(=O)O*)cc2)cc1` (repeat unit) came in with a glass transition temperature of 52.00 °C.

Regarding `*CCCCCCCCCCOC(=O)c1ccc(C(=O)O*)cc1` (repeat unit), the glass transition temperature was determined as 10.50 °C.

Regarding `*CCCCCCCCCCOc1ccc(/C=C/c2ccc(OCCCCCCCCCCOP(=O)(O*)OCCCCCCCCCCOc3ccc(/N=N/c4ccc(OC)cc4)cc3)cc2)cc1` (repeat unit), the glass transition temperature amounted to 58.00 °C.

Consider `*CCCCCCCCCCOc1ccc(/N=C/c2ccc(/C=N/c3ccc(O*)cc3C)cc2)c(C)c1` (repeat unit), for which the glass transition temperature worked out at 77.60 °C.

As for `*CCCCCCCCCCOc1ccc(CCc2ccc(O*)cc2C)cc1` (repeat unit), the glass transition temperature was -3.00 °C.

Take `*CCCCCCCCCOC(=O)C(O)C(O)C(=O)O*` (repeat unit): the glass transition temperature is -11.00 °C.

Compound `*CCCCCCCCCOC(=O)c1ccc(-c2ccc(C(=O)O*)cc2)cc1` (repeat unit) came in with a glass transition temperature of 50.50 °C.

`*CCCCCCCCCOC(=O)c1ccc2cc(C(=O)O*)ccc2c1` (repeat unit): the glass transition temperature was found to be 50.00 °C.

Compound `*CCCCCCCCOC(=O)c1ccc(-c2ccc(C(=O)O*)cc2)cc1` (repeat unit) displayed a glass transition temperature of 47.00 °C.

Turning to `*CCCCCCCCOc1ccc(/C=C2\CC/C(=C\c3ccc(OCCCCCCCCOP(=O)(O*)OCC)c(OC)c3)C2=O)cc1OC` (repeat unit), the glass transition temperature came to 62.00 °C.

As to `*CCCCCCCOC(=O)c1ccc(-c2ccc(C(=O)O*)cc2)cc1` (repeat unit), the glass transition temperature turned out to be 44.00 °C.

Take `*CCCCCCOC(=O)C(=O)O*` (repeat unit): the glass transition temperature came to 66.50 °C.

Compound `*CCCCCCOC(=O)C(CCCCCCCCCCP(=O)(O)O)C(=O)OCCCCCCOc1ccc(-n2on2-c2ccc(O*)cc2)cc1` (repeat unit) registered a glass transition temperature of 16.00 °C.

`*CCCCCCOC(=O)C(CCCCP(=O)(O)O)C(=O)OCCCCCCOc1ccc(-n2on2-c2ccc(O*)cc2)cc1` (repeat unit) returned a glass transition temperature of 19.00 °C.

Consider `*CCCCCCOC(=O)OCCCCCCCCCCCCOC(=O)OCCCCCCOc1ccc(C(=O)c2ccc(O*)cc2)cc1` (repeat unit), for which the glass transition temperature was -8.00 °C.

In turn, `*CCCCCCOC(=O)OCCCCCCCCCCCCOC(=O)OCCCCCCOc1ccc(Oc2ccc(O*)cc2)cc1` (repeat unit) registered a glass transition temperature of -22.00 °C.

Take `*CCCCCCOC(=O)OCCCCCCCCCCCCOC(=O)OCCCCCCn1c(=O)c2cc3c(=O)n(*)c(=O)c3cc2c1=O` (repeat unit): the glass transition temperature was -9.00 °C.

`*CCCCCCOC(=O)OCCCCCCCCCCOC(=O)OCCCCCCOc1ccc(Oc2ccc(O*)cc2)cc1` (repeat unit): the glass transition temperature was -22.00 °C.

The compound `*CCCCCCOC(=O)OCCCCCCCCCOC(=O)OCCCCCCOc1ccc(Oc2ccc(O*)cc2)cc1` (repeat unit) gave a glass transition temperature of -20.00 °C.

For `*CCCCCCOC(=O)OCCCCCCCCOC(=O)OCCCCCCn1c(=O)c2cc3c(=O)n(*)c(=O)c3cc2c1=O` (repeat unit), the glass transition temperature was 8.00 °C.

Regarding `*CCCCCCOC(=O)OCCCCCCOC(=O)OCCCCCCN1C(=O)c2ccc(C(=O)c3ccc4c(c3)C(=O)N(*)C4=O)cc2C1=O` (repeat unit), the glass transition temperature was 40.00 °C.

As to `*CCCCCCOC(=O)OCCCCCCOC(=O)OCCCCCCOc1ccc(-c2ccc(O*)cc2)cc1` (repeat unit), the glass transition temperature worked out at 16.60 °C.

For `*CCCCCCOC(=O)OCCCCCCOC(=O)OCCCCCCOc1ccc(Oc2ccc(O*)cc2)cc1` (repeat unit), the glass transition temperature was -13.00 °C.

Compound `*CCCCCCOC(=O)OCCCCCOC(=O)OCCCCCCOc1ccc(Oc2ccc(O*)cc2)cc1` (repeat unit) had a glass transition temperature of -11.00 °C.

In turn, `*CCCCCCOC(=O)OCCCCOC(=O)OCCCCCCOc1ccc(Oc2ccc(O*)cc2)cc1` (repeat unit) registered a glass transition temperature of -8.00 °C.

Compound `*CCCCCCOC(=O)OCCCOC(=O)OCCCCCCOc1ccc(Oc2ccc(O*)cc2)cc1` (repeat unit) registered a glass transition temperature of -6.00 °C.

For the compound `*CCCCCCOC(=O)c1ccc(-c2ccc(-c3ccc(C(=O)O*)cc3)cc2)cc1` (repeat unit), the glass transition temperature was determined as 60.00 °C.

Compound `*CCCCCOC(=O)OCCCCCN1C(=O)c2ccc(-c3ccc4c(c3)C(=O)N(*)C4=O)cc2C1=O` (repeat unit) displayed a glass transition temperature of 84.00 °C.

As for `*CCCCCOC(=O)c1ccc(-c2ccc(-c3ccc(C(=O)O*)cc3)cc2)cc1` (repeat unit), the glass transition temperature was 40.00 °C.

`*CCCCCOC(=O)c1ccc(/C=C/c2ccc(C(=O)O*)cc2)cc1` (repeat unit): the glass transition temperature amounted to 60.00 °C.

For `*CCCCCOC(=O)c1cccc(C(=O)O*)c1` (repeat unit), the glass transition temperature was determined as 7.00 °C.

`*CCCCCOc1ccc(CCc2ccc(O*)cc2C)cc1` (repeat unit) had a glass transition temperature of 15.40 °C.

For the compound `*CCCCCOc1ccc(OCCCCCc2nnc(-c3ccc(-c4nnc(*)o4)cc3)o2)c(C)c1` (repeat unit), the glass transition temperature stood at 95.00 °C.

`*CCCCOC(=O)OCC1CCC(COC(=O)O*)CC1` (repeat unit) returned a glass transition temperature of 13.00 °C.

With `*CCCCOC(=O)c1ccc(-c2ccc(-c3ccc(C(=O)O*)cc3)cc2)cc1` (repeat unit), the glass transition temperature was found to be 180.00 °C.

With `*OC(=O)OCCCCCCCCCCOC(=O)OC1COC2C(*)COC12` (repeat unit), the glass transition temperature is 6.50 °C.

As for `*OC(=O)OCCCCCCCCOC(=O)OC1COC2C(*)COC12` (repeat unit), the glass transition temperature turned out to be 19.50 °C.

On to `*Oc1ccc(-c2ccc(Oc3ccc(C(=O)c4ccc(*)c(S(=O)(=O)O)c4)cc3S(=O)(=O)O)cc2)cc1` (repeat unit), for which the glass transition temperature amounted to 225.00 °C.

For `*Oc1ccc(-c2ccc(Oc3ccc(C(=O)c4ccc(*)cc4)cc3)cc2)cc1` (repeat unit), the glass transition temperature worked out at 167.00 °C.

In the case of `*Oc1ccc(C(=O)OCCCCCCCOC(=O)c2ccc(OC(=O)c3ccc(C(*)=O)cc3)cc2)cc1` (repeat unit), the glass transition temperature worked out at 70.00 °C.

`*Oc1ccc(C(=O)OCCCCOC(=O)c2ccc(*)cc2)cc1` (repeat unit): the glass transition temperature was 38.00 °C.

As for `*c1ccc(C(=O)OCCCCCCCCCCCCOC(=O)c2ccc(-c3nnc(*)s3)cc2)cc1` (repeat unit), the glass transition temperature came out at 68.00 °C.

Turning to `*c1ccc(C(=O)OCCCCCCCCOC(=O)c2ccc(-c3nnc(*)s3)cc2)cc1` (repeat unit), the glass transition temperature was found to be 86.00 °C.

For the compound `*c1ccc(C(=O)OCCCCCCOC(=O)c2ccc(-c3nnc(*)s3)cc2)cc1` (repeat unit), the glass transition temperature was 125.00 °C.

`*c1ccc(C(=O)OCCCCCCOc2ccc(/C=C3\CCCC/C(=C\c4ccc(OCCCCCCOC(=O)c5ccc(-c6nnc(*)o6)cc5)cc4)C3=O)cc2)cc1` (repeat unit) yielded a glass transition temperature of 104.00 °C.

Compound `*c1ccc(OCCCCCCCCCCCOC(=O)c2cccc(C(=O)OCCCCCCCCCCCOc3ccc(-c4nnc(*)s4)cc3)c2)cc1` (repeat unit) returned a glass transition temperature of 68.00 °C.

`*c1ccc(OCCCCCCCCCCCOC(=O)c2cccc(C(=O)OCCCCCCCCCCCOc3cccc(-c4nnc(*)s4)c3)c2)cc1` (repeat unit): the glass transition temperature is 39.00 °C.

With `*c1ccc(Oc2ccc(-c3csc(/N=C/c4ccc(OCCCCCCCCOc5ccc(/C=N/c6nc(*)cs6)cc5)cc4)n3)cc2)cc1` (repeat unit), the glass transition temperature stood at 150.00 °C.

As for `*c1ccc(Oc2ccc(C(=O)c3ccc(Oc4ccc(-c5c6c(c(*)c7ccccc57)C(=O)N(c5cccc(C(F)(F)F)c5)C6=O)cc4)cc3)cc2)cc1` (repeat unit), the glass transition temperature turned out to be 252.00 °C.

`*c1ccc(Oc2ccc(C(=O)c3ccc(Oc4ccc(-c5c6c(c(*)c7ccccc57)C(=O)N(c5ccccc5)C6=O)cc4)cc3)cc2)cc1` (repeat unit) yielded a glass transition temperature of 273.50 °C.

Compound `*c1ccc(Oc2ccc(C(=O)c3ccc(Oc4ccc(-c5cc(*)[nH]n5)cc4)cc3)cc2)cc1` (repeat unit) showed a glass transition temperature of 229.00 °C.

For `*c1cccc(OCCCCCCCCCCCOC(=O)c2cccc(C(=O)OCCCCCCCCCCCOc3cccc(-c4nnc(*)s4)c3)c2)c1` (repeat unit), the glass transition temperature amounted to 15.00 °C.
